The values below come from patent US20250108064A1, “PHOSPHATE PRODRUGS OF CANNABINOIDS” (priority 2021, published 2025).

For orientation: solubility means how much of the substance goes into solution per volume. A higher solubility goes with a readily soluble substance.

Converted amounts (≈) assume the structure as drawn.

The nature of data set [1]: Plasma stability assay (human plasma). The conditions noted are these: 37° C., unit min, read-out: T½ in human plasma (converted). Format: in vitro ADME. Here is the method:
General Experimental: Procaine and Procainamide were purchased from Sigma-Aldrich. Human plasma was obtained from BioIVT (Cat. No. […]2N) and 1X Dulbecco's PBS (pH 7.4, Gibco) was obtained from Thermos Fischer. Stock solutions were prepared in 100% DMSO, and suitable dilutions of target analytes were prepared in methanol for method development.
Procedure for Plasma Stability Assay: Test compounds were dissolved in DMSO to make a stock solution of 10 mM and then diluted to 500 μM in buffer (or 70% MeOH). Human plasma was thawed at ambient temperature and is aliquoted ([…]) to a 1.5 mL Eppendorf tube in duplicates (A and B) for each compound. Plasma was incubated at 37° C. for 10 minutes in an incubator shaker at 150 rpm; the reaction was initiated by the addition of the test compound (6.0 μL) and vortex mixing. The total reaction volume was 1000 μL where the final organic solvent concentrations were 0.6% MeOH and 0.03% DMSO. The spiked plasma samples were incubated at 37° C. for 4 hrs. The reactions were terminated at time points 0, 15, 30, 60, 120, 180, and 240 min by taking a 100 μL aliquot from the test incubation mixture and immediately quenching it in ice-cold acetonitrile containing internal standard (150 μL with 2 μM ISTD), followed by a quick vortex mixing. In addition, matrix blank was prepared by adding acetonitrile solutions containing ISTD to plasma samples without any of the analytes or control compounds. Also, an additional tube was made to measure compound degradation in PBS buffer. The samples were centrifuged at 15000 rpm for 25 min at 4° C. The supernatant was transferred to an LC-MS vial for analysis by LC/MS-MS. Each time point was run in duplicates followed by in-between blank washes to avoid the carryover and to equilibrate the column. Half-life (T1/2) was calculated using the data obtained from LC-MS/MS and by plotting ln (% remaining of the parent prodrug) versus time and performing linear regression to determine slope. Slope=−k and T1/2=0.693/k for first-order kinetics.
These positive controls were run in parallel to test the systems for competency.

A short description of data set [2]: Simulated Gastric Fluid stability assay. The format is in vitro ADME. The conditions noted are these: simulated gastric fluid (SGF) with pepsin, pH 1.2; SGF pH about 1.2 with pepsin, 37° C.; read-out: T½ in SGF (converted). As to the method: General Experimental: Simulated Gastric Fluid (SGF) is a pH 1.2 HCl solution with purified pepsin (800-2500 units of activity) (Test Solutions, The United States Pharmacopoeia (USP), 2008). SGF was prepared according to a procedure described in Test Solution—USP and other published articles (Bioorganic Chemistry, 49 (2013), 40-48). Sodium chloride 0.20 g and purified pepsin 0.32 g (Sigma), derived from porcine stomach mucosa with an activity of 800 to 2500 units per mg of protein, were dissolved in 0.70 mL hydrochloric acid and sufficient water to make 100 mL. […] The SGF solution prepared was used for in vitro studies to evaluate the prodrug stability.
At specified time intervals, aliquots (100 μL) were withdrawn and added to pre-cooled 100% acetonitrile (200 μL spiked with ISTD) and mixed well by vortex mixing for 2 min. The mixture was centrifuged at 13000 rpm for 15 min at 4° C.

Data set [3] in a line: Liver microsome stability assay (HLM). The format is in vitro ADME. The settings on record: human, microsomes, pH 7.4; 3 μM test compound, NADPH; read-out: T½ in HLM. Here is the method:
(§1) General Experimental: Human and mouse liver microsomes were purchased from Xenotech at 20 mg/mL. NADPH (Sigma-Aldrich) 10 mM stocks were prepared in deionized water.
(§2) Procedure for Liver Microsome Stability Assay: Test compounds and positive controls were dissolved in 100% DMSO to make 10 mM stock solutions. Verapamil (Sigma-Aldrich) and diphenhydramine (Sigma-Aldrich) were used as positive controls for both human liver microsomes (HLM) and mouse liver microsomes (MLM). The 10 mM stock solutions of test and control compounds were further diluted in potassium phosphate buffer (100 mM, pH 7.4) to 500 μM to ensure that the organic solvent content was <0.2%. The liver microsome (HLM or MLM) assay was prepared in a 1.5 mL Eppendorf tube with a final volume of 1100 μL for duplicate runs. Each reaction contained phosphate buffer (928.4 μL), liver microsomes (55 μL), and test compound (6.6 μL of 500 μM), resulting in a final concentration of 3 μM for the test compound. The reaction was initiated with 110 μL of 10 mM NADPH. Aliquots (100 μL) were removed in duplicate at 0, 5, 10, 15, and 30 min and quenched in […] of 100% cold methanol which contained internal standard (ISTD: d5-7-ethoxy coumarin 2 μM). The aliquots were centrifuged at 12,000 g for 5 min, and the supernatant was transferred and placed in an LC-MS vial. Each time point was assessed by LC-MS/MS, and the area under the m/z curve (AUC), based on the MRM transition, was integrated w.r.t the ISTD. Positive controls were conducted at a final volume of 550 μL to enable a single run for each time point. Negative controls in the absence of NADPH were performed with the test and control compounds, respectively, at a final volume of 150 μL and measured at the most prolonged time point. Control compounds were processed and analyzed like test compounds. Each time point was run in triplicates on LC-MS/MS followed by in-between blank washes to avoid the carryover and to equilibrate the column. Half-life (T1/2) was calculated using the data obtained from LC-MS/MS and by plotting ln (% remaining of the parent prodrug) versus time and performing linear regression to determine slope. Slope=−k and T1/2=0.693/k for first-order kinetics.
A general note: Microsomes from liver hold many membrane-bound enzymes, among them those of drug oxidation.

Data set [4] is described as follows: physchem. Format: physicochemical. The settings on record: aqueous buffer, kinetic from dmso stock; nephelometry, PBS pH 7.0-7.3, 1% DMSO, 25° C., 90 min. Here is the method: General Experimental: Nephelometry experiments were performed using untreated Corning® Costar® 96-well black polystyrene plates with clear flat bottoms. Sample stock solutions and serial dilutions were prepared with DriSolv® DMSO purchased from MilliporeSigma. All 100-fold dilutions and replicate experiments were prepared using Gibco® Dulbecco's phosphate-buffered saline (DPBS, no calcium, no magnesium) with a pH range of 7.0-7.3 as aqueous media. […] Nephelometry data was obtained using a NEPHELOstar® microplate reader and processed with MARS data analysis software from BMG LabTech.
Procedure for Nephelometry Experiments: Tested compounds were dissolved in 100% DMSO to make stock solutions of specified concentrations, ranging from 10 mM minimum up to 50 mM maximum. The sample then underwent serial dilution in a 96-well plate (Corning® Costar®). Well A1 of the plate contained 100% DMSO. […] Using a 12 channel multichannel pipette, 2.5 μL of sample from row A was transferred to each well in row B through row H of the plate. Next, 30 μL of PBS (pH=7.0-7.3) was added to row B through row H, providing each well with 32.5 μL. The plate was then incubated for 30 sec with shaking. Finally, 217.5 μL of PBS buffer was added to row B through row H, and the entire plate was incubated with shaking at 25° C. for 90 min. Note: The final volume of DMSO in actual experiments with PBS buffer was 1% throughout the plate. After 90 min, the 96-well plate was analyzed with a NEPHELOstar® instrument and the data was processed with MARS data analysis software.

The nature of data set [5]: Plasma stability (mouse plasma). Format: in vitro ADME. The conditions noted are these: read-out: T½ in mouse plasma (converted).
Data set [6] is described as follows: Liver microsome stability assay (MLM). The format is in vitro ADME. The settings on record: mouse, mouse liver microsomes, pH 7.4; 3 μM test compound, NADPH; read-out: T 1/2 in MLM. As to the method:
as §1
as §2, with “Each time point was run in triplicates on LC-MS/MS followed by in-between blank washes to avoid the carryover and to equilibrate the column.” left out, “Slope=−k and T1/2=0.693/k for first-order kinetics.” left out

The conditions of data set [7]: daily oral doses of 10 mg/kg chronically administered; cited from earlier work.

In the case of `C=C(C)[C@@H]1CCC(C)=C[C@H]1c1c(O)cc(CCCCC)cc1OC(=O)COP(=O)(O)O.N.N` [7a, 2-(((1′R,2′R)-6-hydroxy-5′-methyl-4-pentyl-2′-(prop-1-en-2-yl)-1′,2′,3′,4′-tetrahydro-[1,1′-biphenyl]-2-yl)oxy)-2-oxoethyl phosphate di-ammonium salt], the half-life was 20 min in data set [1], 59 min in data set [3] and 4.5 min in data set [5] (unit min). Besides, the half-life at 2 mM in data set [2] was 315 min. Besides, in data set [4], the solubility was greater than 500 µM. The half-life at 3 μM in data set [6] is 6.1 min.
Consider `C=C(C)[C@@H]1CCC(C)=C[C@H]1c1c(O)cc(CCCCC)cc1O` [CBD, Cannabidiol, reference compound], for which the half-life at 2 mM in data set [2] was greater than 180 min. Also, the results for the half-life in data set [3] and in data set [5] were 5.8 min and 576 min, respectively. The mean plasma concentration in data set [7] is 5.9 to 11.2 ng/mL. Moreover, in data set [4], the solubility turned out to be 16.9 ± 0.55 µM (≈ 5.32 µg/mL). Besides, the half-life at 3 μM in data set [6] was found to be 2.9 min.
